# Data taken from patent publication US8273383B2, “Methods and compositions for treatment of preeclampsia” (Children's Medical Center Corporation, priority 2004, dated 2012).
# “Also recorded” adds a separate entry of the source.
# Tests used:
# HIF-1 = conditions: cited from earlier work
# BeWo cells = assay: Secretion of VEGF, sFLT-1 and PlGF by BeWo cytotrophoblast cell line under hypoxia; type: cell-based; conditions: 5 μM, 10 μM and 30 μM 2-ME
# sFLT-1 and VEGF = assay: Blood levels of sFLT-1 and VEGF in normal mice treated with 2-ME; type: in vivo; conditions: twice daily 30 μM 2-ME, blood samples
# Procedure: Normal mice were treated with 2-ME twice daily with 30 μM of 2-ME. Blood samples were then obtained and assayed for the level of sFLT-1 and VEGF. […] The 30 μM concentration represents approximately the normal physiological level of 2-ME that is found in the blood of pregnant women in the late second trimester or early third trimester through the end of pregnancy. At the end of a pregnancy, levels of 2-ME in non-preeclamptic subjects drops back to non pregnant levels, which are approximately 1-5 μM.
# [1] = test system: cytotrophoblasts from the placenta; assay: Expression of HIF-1α and angiogenic factors in cytotrophoblasts from the placenta (summary statement); type: cell-based
# [2] = test system: tumor and non-tumor cell lines; conditions: wide variety of tumor and non-tumor cell lines; cited from earlier work
# [3] = administered orally; cited from earlier work
# [4] = test system: HTR-8/SV neo trophoblast cells; assay: Blot of protein expression in trophoblast cell lysates under hypoxic conditions; type: cell-based; conditions: 5 μM, 10 μM and 30 μM 2-ME
# Procedure: FIG. 5 is a blot showing that 2-methoxyestradiol treatment of HTR-8/SV neo trophoblast cells downregulations HIF-1α, VEGF165, Flt-1, and sFlt-1 expression in cell lysates under hypoxic conditions.
# (§1) We have shown that 5 μM, 10 μM and 30 μM of 2-ME can reduce the secreted levels of VEGF up to 75% in a dose dependent manner in a placenta cytotrophoblast cell line (HTR) under hypoxia. […] Similarly, 5 μM, 10 μM and 30 μM of 2-ME can reduce the secreted sFLT-1 levels by up to 50% or more in a dose dependent manner in the same cell lines under hypoxia (see FIGS. 1-3).
# [5] = test system: placenta cytotrophoblast cell line (HTR); assay: Secretion of VEGF, sFLT-1 and PlGF by HTR cytotrophoblast cell line under hypoxia; type: cell-based
# Procedure: as §1
# [6] = 5 μM, 10 μM and 30 μM 2-ME, dose dependent, HTR cell line, hypoxia
smiles,measurement,setting,value
"COc1cc2c(cc1O)CC[C@@H]1[C@@H]2CC[C@]2(C)[C@@H](O)CC[C@@H]12 [2-ME, 2-methoxyestradiol]",HIF-1 induced transcriptional activation of VEGF expression,HIF-1,inhibits
same,HIF-1 level,HIF-1; posttranscriptional level,downregulate
same,PlGF secretion levels,BeWo cells,reduce PlGF secretion levels in a dose dependent manner
same,reduction of secreted sFLT-1 levels,BeWo cells; dose dependent,≥ 50%
same,bound VEGF,sFLT-1 and VEGF,decrease in bound VEGF
same,reduction in sFLT-1 expression,sFLT-1 and VEGF,50%
same,expression of HIF-1α,[1],decreases
same,"expression of VEGF, PlGF, VEGF Receptor 1 (VEGFR1) and sFLT-1",[1],dramatic decrease
same,anti-proliferative activity,[2],potent
same,apoptosis,[2],induces apoptosis
same,antitumor and antiangiogenic activity,[3],exhibits antitumor and antiangiogenic activity
same,toxicity,[3],little or no toxicity
same,expression level of Flt-1 in cell lysates,[4],downregulated
same,expression level of HIF-1α in cell lysates,[4],downregulated
same,expression level of VEGF165 in cell lysates,[4],downregulated
same,expression level of sFlt-1 in cell lysates,[4],downregulated
same,expression level of Flt-1 in cell lysates,[4]; listed as 2-methoxyestradiol,downregulations
same,expression level of HIF-1α in cell lysates,[4]; listed as 2-methoxyestradiol,downregulations
same,expression level of VEGF165 in cell lysates,[4]; listed as 2-methoxyestradiol,downregulations
same,expression level of sFlt-1 in cell lysates,[4]; listed as 2-methoxyestradiol,downregulations
same,PlGF secretion levels,"[5]; 5 μM, 10 μM and 30 μM 2-ME, HTR cell line, hypoxia",reduce PlGF secretion levels in a dose dependent manner
same,PlGF secretion levels,"[5]; 5 μM, 10 μM and 30 μM 2-ME, HTR cell line, hypoxia, listed as 2-methoxyestradiol",reduction of PlGF secretion
same,reduction of secreted levels of VEGF,[5]; [6],up to 75%
same,reduction of secreted sFLT-1 levels,[5]; [6],≥ 50%
same,sFLT-1 production / secretion,[5]; HTR / HTR-8/SV neo cells,reduction of sFLT-1 production
same,secretion of VEGF,[5]; HTR / HTR-8/SV neo cells,reduces secretion of VEGF; also recorded: reduction
